Molecules are shown by their SMILES. pIC50: −log10 of the molar value.

The target of one assay is T1, SHP2 (Homo sapiens, UniProt Q06124).
T1 construct: gene PTPN11
T1 sequence (Q06124 1-526): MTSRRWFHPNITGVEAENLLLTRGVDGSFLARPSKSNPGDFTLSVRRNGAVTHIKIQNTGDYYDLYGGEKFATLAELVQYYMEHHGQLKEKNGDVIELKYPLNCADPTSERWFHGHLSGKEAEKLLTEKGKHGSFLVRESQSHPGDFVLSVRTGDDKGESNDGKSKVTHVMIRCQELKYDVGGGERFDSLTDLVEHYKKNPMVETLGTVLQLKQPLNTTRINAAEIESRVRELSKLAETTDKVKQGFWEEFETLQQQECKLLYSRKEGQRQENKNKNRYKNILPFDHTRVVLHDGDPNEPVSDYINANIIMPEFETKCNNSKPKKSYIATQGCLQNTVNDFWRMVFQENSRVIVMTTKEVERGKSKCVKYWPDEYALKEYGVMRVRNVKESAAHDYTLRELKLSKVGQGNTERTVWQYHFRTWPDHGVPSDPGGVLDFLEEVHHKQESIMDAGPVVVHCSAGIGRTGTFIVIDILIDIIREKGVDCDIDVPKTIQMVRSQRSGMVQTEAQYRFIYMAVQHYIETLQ
Put plainly: DiFMUP fluorogenic phosphatase assay, dose-response and Hill plot. The class given is biochemical.

Another assay concerns the target T2, PTPN5 (STEP) (Homo sapiens, UniProt P54829).
T2 construct: 313-565
T2 sequence (P54829 1-565): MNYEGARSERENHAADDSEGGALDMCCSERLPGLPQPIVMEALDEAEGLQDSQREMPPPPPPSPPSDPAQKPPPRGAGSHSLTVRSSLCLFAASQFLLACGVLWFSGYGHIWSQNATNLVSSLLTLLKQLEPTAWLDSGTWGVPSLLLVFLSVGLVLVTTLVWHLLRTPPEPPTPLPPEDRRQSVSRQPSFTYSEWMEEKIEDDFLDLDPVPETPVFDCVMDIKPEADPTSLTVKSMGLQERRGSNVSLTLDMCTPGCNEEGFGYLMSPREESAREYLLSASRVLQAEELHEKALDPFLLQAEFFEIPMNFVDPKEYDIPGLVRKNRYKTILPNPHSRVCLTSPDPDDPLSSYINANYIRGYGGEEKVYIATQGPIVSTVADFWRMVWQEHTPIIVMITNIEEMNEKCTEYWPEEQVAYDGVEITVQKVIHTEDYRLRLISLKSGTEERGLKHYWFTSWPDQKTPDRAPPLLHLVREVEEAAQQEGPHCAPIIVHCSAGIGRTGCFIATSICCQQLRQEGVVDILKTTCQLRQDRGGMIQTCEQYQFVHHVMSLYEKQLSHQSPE
Put plainly: biochemical. Set-up: Fluorogenic phosphatase assay, DiFMUP hydrolysis by recombinant PTPs, initial velocity, Ex/Em 355/460 nm. The settings on record: read-out: Inhibition by 20 µM polyphyllin D (%).

On to `C[C@@H]1CC[C@@]2(OC1)O[C@H]1C[C@H]3[C@@H]4CC=C5C[C@@H](O[C@@H]6O[C@H](CO)[C@@H](O[C@@H]7O[C@@H](CO)[C@H](O)[C@H]7O)[C@H](O)[C@H]6O[C@@H]6O[C@@H](C)[C@H](O)[C@@H](O)[C@H]6O)CC[C@]5(C)[C@H]4CC[C@]3(C)[C@H]1[C@@H]2C` [polyphyllin D], for which, on SHP2, the pIC50 was 4.82. For the same compound, the inhibition at 20 µM on PTPN5 (STEP) is 0%.

The pIC50 is −log10 of the IC50, conventionally taken in molar units. Lower therefore signals a high IC50. For orientation: inhibition means the relative decrease from the control value, in per cent.

For the origin of these results see PMC7915588, “Polyphyllin D Shows Anticancer Effect through a Selective Inhibition of Src Homology Region 2-Containing Protein Tyrosine Phosphatase-2 (SHP2)” (Molecules, 2021).
